# Results published in patent US10689359B2, “Crystals of quinazoline derivative and preparation method therefor” (Xuanzhu Pharma Co., Ltd., priority 2015, dated 2020).
# Experiments:
# [1] = Study on stability of Crystal form I, II and III (influencing factors; character, moisture content, relevant substances by HPLC, XRPD); format: physicochemical; conditions: for Increase of moisture content: 10 days vs Day 0; for Stability of the samples (conclusion): influencing factor conditions (high temperature, high moisture, light)
# Protocol: The samples were tested for character, relevant substances, moisture content, XRPD pattern, etc. […] The samples were tested for relevant substances, content, character, moisture content, XRPD pattern, etc. During the study, the uncovered experimental samples were kept in cultured dishes in the air. […] During the study, the uncovered experimental samples were kept in cultured dishes in the air. […] With respect to relevant substances, in accordance with High Performance Liquid Chromatography in Appendix V D in Pharmacopoeia of the People's Republic of China (2010), the samples were determined by area normalization method. Instrument: High Performance Liquid Chromatographic Instrument (Agilent 1200/1260 series) Chromatographic column: chromatographic column using octylsilane chemically bonded silica as filler (HC-C8, 4.6×250 mm, 5 μm) Column temperature: 30° C. Detection wavelength: 230 nm Mobile phase: mobile phase consisting of 0.03 mol/L diammonium hydrogen phosphate/0.03 mol/L sodium perchlorate solution-acetonitrile, and reversed-phase gradient elution was employed. Flow rate: 1.0 mL/min Injection volume: 10 μL Method for determining moisture content: the moisture content was determined in accordance with First Method for Determining Moisture Content B (Coulometric Titration) in Appendix VIII M in Pharmacopoeia of the People's Republic of China (2010).
# [2] = Comparison of stability between crystal forms and amorphous form, 60° C. uncovered, relevant substances by HPLC; format: physicochemical; conditions: for Change in total relevant substances (conclusion): 60° C. uncovered, 5 days and 10 days
# Protocol: Instrument: High Performance Liquid Chromatographic Instrument (Agilent 1260 series) Chromatographic column: chromatographic column using octylsilane chemically bonded silica as filler (HC-C8, 4.6×250 mm, 5 μm) Column temperature: 30° C. Detection wavelength: 230 nm Mobile phase: Mobile phase consisting of 0.06 mol/L sodium dihydrogen phosphate/0.06 mol/L sodium perchlorate solution-acetonitrile, and reversed-phase gradient elution was employed. Flow rate: 1.0 mL/min Injection volume: 10 μL
# [3] = Evaluation on pharmacokinetics in SD rats, intragastric administration; format: in vivo; conditions: 5 mg/kg; for AUC0-t / AUCinf / Cmax (maximum blood concentration) / T1/2 (drug elimination half-life) / Tmax (time to maximum blood concentration): suspension in water
# Protocol: An amorphous form of a compound of Formula (I), the preparation method of which could be found in the particular Examples as disclosed in the international patent application (Publication No. WO 2012027960 A1).
# Test animal: SD rats, male, weighed 190-250 g, 6 rats for each crystal form, purchased from Beijing Vital River Laboratory Animal Technology Co., Ltd.
# Administration route: intragastric administration, at an administration dose of 5 mg/kg, and an administration volume of 10 mL/kg.
# Blood collection: whole blood (about 100 μL) was collected from tail vein 10 min, 30 min, 1 h, 2 h, 4 h, 6 h, 8 h, and 24 h after administration, and added to K2EDTA-containing anticoagulation tubes. The whole blood sample was centrifuged for 6 min at 4° C., 8000 rpm in a high speed centrifuge, and plasma was separated. Plasma needed to be prepared within 30 min after blood collection, and stored at −80° C. in a refrigerator.
# Plasma sample analysis: the plasma samples were analyzed by protein precipitation: to plasma (20 μL), an internal standard Gefitinib (200 μL, 50 ng/mL acetonitrile solution) was added; the resultant mixture was vortexed at 500 rpm for 5 min, and centrifuged at 4000 rpm for 20 min in a high speed centrifuge; to the supernatant (100 μL), water (100 μL) was added; the resultant mixture was mixed homogeneously under vortexing and analyzed by LC-MS/MS for blood concentration.
# Calculation for PK parameters: PK parameters were calculated by using Pharsight Phoenix 6.2 software.
# [4] = 10 days, 40° C./RH75% uncovered
# [5] = influencing factor condition for 10 days
smiles,measurement,setting,value
"C=CC(=O)Nc1cc2c(Nc3ccc(F)c(Cl)c3)ncnc2cc1OCC1CC2(CCN(C)CC2)C1 [Crystal form I, N-(4-((3-chloro-4-fluorophenyl)amino)-7-((7-methyl-7-azaspiro[3.5]nonan-2-yl)methoxy)quinazolin-6-yl)acrylamide]",Character,[1]; 0 day,light yellow
same,Crystal form,[1]; 0 day,crystal-
same,Moisture content,[1]; 0 day,5.0%
same,Relevant substance,[1]; 0 day,0.78%
same,Change in impurities,"[1]; 60° C.-uncovered, UV light, 10 days",increased to some extent
same,Character,"[1]; 5 days, 40° C./RH75% covered",light yellow
same,Crystal form,"[1]; 5 days, 40° C./RH75% covered",the same
same,Moisture content,"[1]; 5 days, 40° C./RH75% covered",5.1%
same,Relevant substance,"[1]; 5 days, 40° C./RH75% covered",0.74%
same,Character,"[1]; 5 days, 40° C./RH75% uncovered",light yellow
same,Crystal form,"[1]; 5 days, 40° C./RH75% uncovered",the same
same,Moisture content,"[1]; 5 days, 40° C./RH75% uncovered",5.4%
same,Relevant substance,"[1]; 5 days, 40° C./RH75% uncovered",0.76%
same,Character,"[1]; 5 days, 60° C. covered",light yellow
same,Crystal form,"[1]; 5 days, 60° C. covered",the same
same,Moisture content,"[1]; 5 days, 60° C. covered",5.0%
same,Relevant substance,"[1]; 5 days, 60° C. covered",0.75%
same,Character,"[1]; 5 days, 60° C. uncovered",light yellow
same,Crystal form,"[1]; 5 days, 60° C. uncovered",the same
same,Moisture content,"[1]; 5 days, 60° C. uncovered",4.9%
same,Relevant substance,"[1]; 5 days, 60° C. uncovered",1.3%
same,Character,"[1]; 5 days, RH-75%",light yellow
same,Crystal form,"[1]; 5 days, RH-75%",the same
same,Moisture content,"[1]; 5 days, RH-75%",5.5%
same,Relevant substance,"[1]; 5 days, RH-75%",0.78%
same,Character,"[1]; 5 days, RH-92.5%",light yellow
same,Crystal form,"[1]; 5 days, RH-92.5%",the same
same,Moisture content,"[1]; 5 days, RH-92.5%",5.5%
same,Relevant substance,"[1]; 5 days, RH-92.5%",0.78%
same,Character,"[1]; 5 days, visible light",light yellow
same,Crystal form,"[1]; 5 days, visible light",the same
same,Moisture content,"[1]; 5 days, visible light",5.1%
same,Relevant substance,"[1]; 5 days, visible light",0.74%
same,Character,"[1]; 10 days, 40° C./RH75% covered",light yellow
same,Crystal form,"[1]; 10 days, 40° C./RH75% covered",the same
same,Moisture content,"[1]; 10 days, 40° C./RH75% covered",4.9%
same,Relevant substance,"[1]; 10 days, 40° C./RH75% covered",0.73%
same,Character,[1]; [4],light yellow
same,Crystal form,[1]; [4],the same
same,Moisture content,[1]; [4],5.2%
same,Relevant substance,[1]; [4],0.79%
same,Character,"[1]; 10 days, 60° C. covered",light yellow
same,Crystal form,"[1]; 10 days, 60° C. covered",the same
same,Moisture content,"[1]; 10 days, 60° C. covered",4.8%
same,Relevant substance,"[1]; 10 days, 60° C. covered",0.78%
same,Character,"[1]; 10 days, 60° C. uncovered",light yellow
same,Crystal form,"[1]; 10 days, 60° C. uncovered",the same
same,Moisture content,"[1]; 10 days, 60° C. uncovered",4.6%
same,Relevant substance,"[1]; 10 days, 60° C. uncovered",1.4%
same,Character,"[1]; 10 days, RH-75%",light yellow
same,Crystal form,"[1]; 10 days, RH-75%",the same
same,Moisture content,"[1]; 10 days, RH-75%",5.7%
same,Relevant substance,"[1]; 10 days, RH-75%",0.70%
same,Character,"[1]; 10 days, RH-92.5%",light yellow
same,Crystal form,"[1]; 10 days, RH-92.5%",the same
same,Moisture content,"[1]; 10 days, RH-92.5%",5.8%
same,Relevant substance,"[1]; 10 days, RH-92.5%",0.79%
same,Character,"[1]; 10 days, UV light",light yellow
same,Crystal form,"[1]; 10 days, UV light",the same
same,Moisture content,"[1]; 10 days, UV light",5.2%
same,Relevant substance,"[1]; 10 days, UV light",0.89%
same,Increase of moisture content,[1]; high moisture RH-75%,0.7%
same,Increase of moisture content,[1]; high moisture RH-92.5%,0.8%
same,Stability of the samples (conclusion),[1]; 10 days,relatively stable
same,Total relevant substances,[2]; 0 day,0.23%
same,Change in total relevant substances (conclusion),[2],little increase in total relevant substances
same,Total relevant substances,[2]; 60° C. uncovered-5 days,0.48%
same,Total relevant substances,[2]; 60° C. uncovered-10 days,0.47%
same,Pharmacokinetic properties (conclusion),[3],good pharmacokinetic properties
same,AUC0-t,[3],1404 ng·h/mL
same,AUCinf,[3],1414 ng·h/mL
same,Cmax (maximum blood concentration),[3],134 ng/mL
same,T1/2 (drug elimination half-life),[3],3.16 h
same,Tmax (time to maximum blood concentration),[3],4 h
"C=CC(=O)Nc1cc2c(Nc3ccc(F)c(Cl)c3)ncnc2cc1OCC1CC2(CCN(C)CC2)C1 [Crystal form II, N-(4-((3-chloro-4-fluorophenyl)amino)-7-((7-methyl-7-azaspiro[3.5]nonan-2-yl)methoxy)quinazolin-6-yl)acrylamide]",Character,[1]; 0 day,light yellow
same,Crystal form,[1]; 0 day,Crystal
same,Moisture content,[1]; 0 day,3.5%
same,Relevant substance,[1]; 0 day,0.37%
same,Character,"[1]; 5 days, 40° C./RH75% covered",light yellow
same,Crystal form,"[1]; 5 days, 40° C./RH75% covered",the same
same,Moisture content,"[1]; 5 days, 40° C./RH75% covered",3.6%
same,Relevant substance,"[1]; 5 days, 40° C./RH75% covered",0.34%
same,Character,"[1]; 5 days, 40° C./RH75% uncovered",light yellow
same,Crystal form,"[1]; 5 days, 40° C./RH75% uncovered",the same
same,Moisture content,"[1]; 5 days, 40° C./RH75% uncovered",3.7%
same,Relevant substance,"[1]; 5 days, 40° C./RH75% uncovered",0.38%
same,Character,"[1]; 5 days, 60° C. covered",light yellow
same,Crystal form,"[1]; 5 days, 60° C. covered",the same
same,Moisture content,"[1]; 5 days, 60° C. covered",3.6%
same,Relevant substance,"[1]; 5 days, 60° C. covered",0.33%
same,Character,"[1]; 5 days, 60° C. uncovered",light yellow
same,Crystal form,"[1]; 5 days, 60° C. uncovered",the same
same,Moisture content,"[1]; 5 days, 60° C. uncovered",3.6%
same,Relevant substance,"[1]; 5 days, 60° C. uncovered",0.35%
same,Character,"[1]; 5 days, RH-75%",light yellow
same,Crystal form,"[1]; 5 days, RH-75%",the same
same,Moisture content,"[1]; 5 days, RH-75%",3.6%
same,Relevant substance,"[1]; 5 days, RH-75%",0.35%
same,Character,"[1]; 5 days, RH-92.5%",light yellow
same,Crystal form,"[1]; 5 days, RH-92.5%",the same
same,Moisture content,"[1]; 5 days, RH-92.5%",3.7%
same,Relevant substance,"[1]; 5 days, RH-92.5%",0.36%
same,Character,"[1]; 5 days, light",light yellow
same,Crystal form,"[1]; 5 days, light",the same
same,Moisture content,"[1]; 5 days, light",3.7%
same,Relevant substance,"[1]; 5 days, light",0.35%
same,Character,"[1]; 10 days, 40° C./RH75% covered",light yellow
same,Crystal form,"[1]; 10 days, 40° C./RH75% covered",the same
same,Moisture content,"[1]; 10 days, 40° C./RH75% covered",3.6%
same,Relevant substance,"[1]; 10 days, 40° C./RH75% covered",0.33%
same,Character,[1]; [4],light yellow
same,Crystal form,[1]; [4],the same
same,Moisture content,[1]; [4],3.8%
same,Relevant substance,[1]; [4],0.33%
same,Character,"[1]; 10 days, 60° C. covered",light yellow
same,Crystal form,"[1]; 10 days, 60° C. covered",the same
same,Moisture content,"[1]; 10 days, 60° C. covered",3.7%
same,Relevant substance,"[1]; 10 days, 60° C. covered",0.36%
same,Character,"[1]; 10 days, 60° C. uncovered",light yellow
same,Crystal form,"[1]; 10 days, 60° C. uncovered",the same
same,Moisture content,"[1]; 10 days, 60° C. uncovered",3.7%
same,Relevant substance,"[1]; 10 days, 60° C. uncovered",0.43%
same,Character,"[1]; 10 days, RH-75%",light yellow
same,Crystal form,"[1]; 10 days, RH-75%",the same
same,Moisture content,"[1]; 10 days, RH-75%",3.7%
same,Relevant substance,"[1]; 10 days, RH-75%",0.36%
same,Character,"[1]; 10 days, RH-92.5%",light yellow
same,Crystal form,"[1]; 10 days, RH-92.5%",the same
same,Moisture content,"[1]; 10 days, RH-92.5%",3.7%
same,Relevant substance,"[1]; 10 days, RH-92.5%",0.34%
same,Character,"[1]; 10 days, light",light yellow
same,Crystal form,"[1]; 10 days, light",the same
same,Moisture content,"[1]; 10 days, light",3.7%
same,Relevant substance,"[1]; 10 days, light",0.35%
same,Change in Crystal form (XRPD pattern test),[1]; [5],no change
same,Change in impurities,[1]; [5],no significant change
same,Stability of the samples (conclusion),[1]; 10 days,relatively stable
same,Total relevant substances,[2]; 0 day,0.64%
same,Change in total relevant substances (conclusion),[2],little increase in total relevant substances
same,Total relevant substances,[2]; 60° C. uncovered-5 days,0.66%
same,Total relevant substances,[2]; 60° C. uncovered-10 days,0.70%
same,Pharmacokinetic properties (conclusion),[3],good pharmacokinetic properties
same,AUC0-t,[3],1536 ng·h/mL
same,AUCinf,[3],1591 ng·h/mL
same,Cmax (maximum blood concentration),[3],135 ng/mL
same,T1/2 (drug elimination half-life),[3],4.59 h
same,Tmax (time to maximum blood concentration),[3],3 h
